According to article PMC11286291, “A Light-Driven In Vitro Enzymatic Biosystem for the Synthesis of α-Farnesene from Methanol” (Biodesign Research, 2024):

Target: T1, AFS (Malus domestica, UniProt Q84LB2)
T1 construct: gene AFS1; N-terminal SUMO fusion, pET28a, E. coli BL21(DE3), Ni-NTA purified
T1 sequence (Q84LB2 1-576): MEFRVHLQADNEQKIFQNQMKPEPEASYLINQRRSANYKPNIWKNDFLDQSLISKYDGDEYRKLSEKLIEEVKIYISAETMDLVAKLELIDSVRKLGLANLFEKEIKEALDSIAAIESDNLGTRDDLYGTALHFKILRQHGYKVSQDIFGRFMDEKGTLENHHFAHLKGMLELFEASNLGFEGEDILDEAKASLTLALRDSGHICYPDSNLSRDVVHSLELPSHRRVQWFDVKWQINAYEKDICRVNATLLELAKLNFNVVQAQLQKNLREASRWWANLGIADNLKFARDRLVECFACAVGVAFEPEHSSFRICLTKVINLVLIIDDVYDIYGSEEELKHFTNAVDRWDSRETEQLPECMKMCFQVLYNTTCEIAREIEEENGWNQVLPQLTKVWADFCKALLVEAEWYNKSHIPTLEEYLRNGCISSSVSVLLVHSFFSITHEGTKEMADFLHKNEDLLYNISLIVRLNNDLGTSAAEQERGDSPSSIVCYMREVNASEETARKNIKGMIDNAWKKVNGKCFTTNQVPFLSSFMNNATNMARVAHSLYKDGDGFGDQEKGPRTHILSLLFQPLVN
Experiment: GC-MS of alpha-farnesene; FPP formed in situ from IPP by IDI and ISPA
Format: biochemical
Settings: 100 mM Hepes pH 7.5, 2 mM IPP, room temperature

## CC(C)=CCC/C(C)=C/CC/C(C)=C/COP(=O)(O)OP(=O)(O)O [farnesyl pyrophosphate]
  GC-MS of alpha-farnesene; FPP formed in situ from IPP by IDI and ISPA: the yield of AFS was greater than that of MdF, with an α-farnesene yield
